How the values were obtained:
[1] = molecular target: Serine-protein kinase ATM (Homo sapiens, UniProt Q13315); experiment: Inhibitory Activities of Compounds on ATM
Experimental: To a 96-well plate, 98 μL of DMSO and 2 μL of the 10 mM stock solution were added and mixed evenly so that the concentration of the solution was 200 μM.

[2] = molecular target: DNA-dependent protein kinase catalytic subunit (Homo sapiens, UniProt P78527); experiment: Inhibitory Activities of Compounds on DNA-PK Kinase: ADP-Glo Kinase Assay
Experimental: (1) Preparation of 1× kinase buffer40 mM Tris, pH 7.50.0055% Brij-3520 mM MgCl20.05 mM DTT(2) Preparation of test compound1) The compound was dissolved in DMSO to yield a stock solution. Before the assay, the stock solution of the compound was diluted with DMSO to yield a 100× solution at a concentration that is 100 times a target concentration for assay. […] The test plate was shaken for mixing evenly.3) Kinase reactionEach well of the test plate was covered and incubated at room temperature for 3 h.(4) Kinase detection1) The ADP-Glo reagent was equilibrated at room temperature.2) 5 μL of ADP-Glo reagent was added to each well of the test plate to terminate the reaction.3) The plate was centrifuged for a short time to mix evenly, shaken gently, and equilibrated for 120 min.4) 10 μL of kinase detection reagent was added to each well, with shaking for 1 min, after equilibrating for 30 min, […] detection was performed.(5) Reading of the reaction wells(6) Calculation of inhibitory rates by means of curve fitting to the read values.

[3] = molecular target: Phosphatidylinositol 4,5-bisphosphate 3-kinase catalytic subunit beta isoform (Homo sapiens, UniProt P42338); experiment: Inhibitory Activities of Compounds on PI3Kα, PI3Kβ, PI3Kγ, and PI3Kδ Kinase: ADP-Glo Kinase Assay
Experimental: (§1) (1) Preparation of 1× kinase buffer50 mM HEPES, pH 7.53 mM MgCl21 mM EGTA100 mM NaCl0.03% CHAPS2 mM DTT(2) Preparation of test compound1) Dissolution and dilution of compound:The compound was dissolved in DMSO to yield a stock solution. Before the assay, the stock solution of the compound was diluted with DMSO in a 384-well plate to yield a 100× solution at a concentration that is 100 times a target concentration for assay.50 μL of DMSO was added, respectively, into two blank wells in the same 384 well plate, corresponding to the total reaction control without compound and the blank control without enzyme.2) Preparation of test plate: 50 nL of the compound solution in each of the above wells was taken to a test plate.(3) Kinase reaction1) PI3Kα, PI3Kβ, PI3Kγ, and PI3Kδ kinases were dissolved, respectively, in 1× kinase buffer to yield a 2× enzyme solution at a concentration that is twice the final concentration. 2.5 µL of the 2× enzyme solution was taken to each well of the test plate. The blank control without enzyme was added with 2.5 μL of the 1× kinase buffer instead of the enzyme solution. The test plate was shaken for mixing evenly.2) PIP2 substrate and ATP were dissolved in the 1× kinase buffer to yield a 2× substrate solution that is twice the final concentration. 2.5 μL of the 2× substrate solution was taken to each well of the test plate. The test plate was shaken for mixing evenly.3) Kinase reactionEach well of the test plate was covered and incubated at room temperature for 1 h.(4) Kinase detection1) The ADP-Glo reagent was equilibrated at room temperature.2) 5 μL of ADP-Glo reagent was added to each well of the test plate to terminate the reaction.3) The plate was centrifuged for a short time to mix evenly, shaken gently, and equilibrated for 120 min.4) 10 μL of kinase detection reagent was added to each well, with shaking for 1 min, after equilibrating for 30 min, […] detection was performed.(5) Reading of the reaction wells(6) Calculation of inhibitory rates by means of curve fitting to the read values

[4] = molecular target: Phosphatidylinositol 4,5-bisphosphate 3-kinase catalytic subunit alpha isoform (Homo sapiens, UniProt P42336); experiment: as above
Experimental: as §1

[5] = molecular target: T1, Phosphatidylinositol 4,5-bisphosphate 3-kinase catalytic subunit delta isoform (Homo sapiens, UniProt O00329); experiment: as above
T1 sequence (O00329 whole entry): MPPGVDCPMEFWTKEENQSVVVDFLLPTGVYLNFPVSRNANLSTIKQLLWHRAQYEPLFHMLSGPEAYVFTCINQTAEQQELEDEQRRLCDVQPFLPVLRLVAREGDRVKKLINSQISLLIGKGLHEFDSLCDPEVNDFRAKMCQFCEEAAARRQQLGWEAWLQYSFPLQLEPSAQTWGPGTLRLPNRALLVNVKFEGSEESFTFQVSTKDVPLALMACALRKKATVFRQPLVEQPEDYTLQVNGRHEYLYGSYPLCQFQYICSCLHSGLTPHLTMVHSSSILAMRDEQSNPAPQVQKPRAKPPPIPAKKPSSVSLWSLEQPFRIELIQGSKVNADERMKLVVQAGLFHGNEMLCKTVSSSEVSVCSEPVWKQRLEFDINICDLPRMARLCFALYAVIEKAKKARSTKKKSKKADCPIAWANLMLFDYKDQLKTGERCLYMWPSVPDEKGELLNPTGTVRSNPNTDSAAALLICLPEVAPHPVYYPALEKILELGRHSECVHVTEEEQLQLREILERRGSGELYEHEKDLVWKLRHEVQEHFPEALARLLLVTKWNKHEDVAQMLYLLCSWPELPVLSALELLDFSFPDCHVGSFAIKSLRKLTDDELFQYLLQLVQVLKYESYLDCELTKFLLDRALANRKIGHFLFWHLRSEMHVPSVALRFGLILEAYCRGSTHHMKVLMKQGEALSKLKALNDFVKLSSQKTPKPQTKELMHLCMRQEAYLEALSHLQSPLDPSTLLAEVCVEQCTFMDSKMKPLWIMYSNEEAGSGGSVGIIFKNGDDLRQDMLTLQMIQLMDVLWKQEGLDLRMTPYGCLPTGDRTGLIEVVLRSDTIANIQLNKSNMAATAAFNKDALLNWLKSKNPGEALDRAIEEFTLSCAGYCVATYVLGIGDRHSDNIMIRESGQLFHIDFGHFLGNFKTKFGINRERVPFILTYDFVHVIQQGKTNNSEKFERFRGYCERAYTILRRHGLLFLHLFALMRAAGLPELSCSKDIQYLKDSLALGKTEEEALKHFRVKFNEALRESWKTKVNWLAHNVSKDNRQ
Experimental: as §1

[6] = molecular target: Phosphatidylinositol 4,5-bisphosphate 3-kinase catalytic subunit gamma isoform (Homo sapiens, UniProt P48736); experiment: as above
Experimental: as §1

[7] = molecular target: Serine/threonine-protein kinase ATR (Homo sapiens, UniProt Q13535); experiment: Inhibitory Activity of Compounds on ATR
Experimental: (1) Preparation of 1 kinase buffer and reaction termination solution1) 1 kinase buffer50 mM HEPES, pH 7.50.0015% Brij-[…] MnCl22) Reaction termination solution100 mM HEPES, pH 7.50.015% Brij-350.2% Coating Reagent #350 mM EDTA(2) Preparation of test compound1) The compound was dissolved in DMSO to yield a stock solution. Before the assay, to a 96-well plate, 30 uL of a 10 mM stock solution was taken and added with 60 uL of DMSO. […] 10 µL of the 2 substrate solution was taken to each well of the test plate.3) Kinase reaction:After incubation at 28 C. for a certain time, 30 uL of the reaction termination solution was added to terminate the enzymatic reaction.(5) Reading of the reaction wells(6) Calculation of inhibitory rates by means of curve fitting to the read values.% inhibitory rate=(max+-sample value)/(max+-min)*100; wherein max represents the value of the total reaction well with DMSO but no compound; min represents the value of the blank control well without enzyme and compound.

Serine-protein kinase ATM, sequence (Q13315 whole entry): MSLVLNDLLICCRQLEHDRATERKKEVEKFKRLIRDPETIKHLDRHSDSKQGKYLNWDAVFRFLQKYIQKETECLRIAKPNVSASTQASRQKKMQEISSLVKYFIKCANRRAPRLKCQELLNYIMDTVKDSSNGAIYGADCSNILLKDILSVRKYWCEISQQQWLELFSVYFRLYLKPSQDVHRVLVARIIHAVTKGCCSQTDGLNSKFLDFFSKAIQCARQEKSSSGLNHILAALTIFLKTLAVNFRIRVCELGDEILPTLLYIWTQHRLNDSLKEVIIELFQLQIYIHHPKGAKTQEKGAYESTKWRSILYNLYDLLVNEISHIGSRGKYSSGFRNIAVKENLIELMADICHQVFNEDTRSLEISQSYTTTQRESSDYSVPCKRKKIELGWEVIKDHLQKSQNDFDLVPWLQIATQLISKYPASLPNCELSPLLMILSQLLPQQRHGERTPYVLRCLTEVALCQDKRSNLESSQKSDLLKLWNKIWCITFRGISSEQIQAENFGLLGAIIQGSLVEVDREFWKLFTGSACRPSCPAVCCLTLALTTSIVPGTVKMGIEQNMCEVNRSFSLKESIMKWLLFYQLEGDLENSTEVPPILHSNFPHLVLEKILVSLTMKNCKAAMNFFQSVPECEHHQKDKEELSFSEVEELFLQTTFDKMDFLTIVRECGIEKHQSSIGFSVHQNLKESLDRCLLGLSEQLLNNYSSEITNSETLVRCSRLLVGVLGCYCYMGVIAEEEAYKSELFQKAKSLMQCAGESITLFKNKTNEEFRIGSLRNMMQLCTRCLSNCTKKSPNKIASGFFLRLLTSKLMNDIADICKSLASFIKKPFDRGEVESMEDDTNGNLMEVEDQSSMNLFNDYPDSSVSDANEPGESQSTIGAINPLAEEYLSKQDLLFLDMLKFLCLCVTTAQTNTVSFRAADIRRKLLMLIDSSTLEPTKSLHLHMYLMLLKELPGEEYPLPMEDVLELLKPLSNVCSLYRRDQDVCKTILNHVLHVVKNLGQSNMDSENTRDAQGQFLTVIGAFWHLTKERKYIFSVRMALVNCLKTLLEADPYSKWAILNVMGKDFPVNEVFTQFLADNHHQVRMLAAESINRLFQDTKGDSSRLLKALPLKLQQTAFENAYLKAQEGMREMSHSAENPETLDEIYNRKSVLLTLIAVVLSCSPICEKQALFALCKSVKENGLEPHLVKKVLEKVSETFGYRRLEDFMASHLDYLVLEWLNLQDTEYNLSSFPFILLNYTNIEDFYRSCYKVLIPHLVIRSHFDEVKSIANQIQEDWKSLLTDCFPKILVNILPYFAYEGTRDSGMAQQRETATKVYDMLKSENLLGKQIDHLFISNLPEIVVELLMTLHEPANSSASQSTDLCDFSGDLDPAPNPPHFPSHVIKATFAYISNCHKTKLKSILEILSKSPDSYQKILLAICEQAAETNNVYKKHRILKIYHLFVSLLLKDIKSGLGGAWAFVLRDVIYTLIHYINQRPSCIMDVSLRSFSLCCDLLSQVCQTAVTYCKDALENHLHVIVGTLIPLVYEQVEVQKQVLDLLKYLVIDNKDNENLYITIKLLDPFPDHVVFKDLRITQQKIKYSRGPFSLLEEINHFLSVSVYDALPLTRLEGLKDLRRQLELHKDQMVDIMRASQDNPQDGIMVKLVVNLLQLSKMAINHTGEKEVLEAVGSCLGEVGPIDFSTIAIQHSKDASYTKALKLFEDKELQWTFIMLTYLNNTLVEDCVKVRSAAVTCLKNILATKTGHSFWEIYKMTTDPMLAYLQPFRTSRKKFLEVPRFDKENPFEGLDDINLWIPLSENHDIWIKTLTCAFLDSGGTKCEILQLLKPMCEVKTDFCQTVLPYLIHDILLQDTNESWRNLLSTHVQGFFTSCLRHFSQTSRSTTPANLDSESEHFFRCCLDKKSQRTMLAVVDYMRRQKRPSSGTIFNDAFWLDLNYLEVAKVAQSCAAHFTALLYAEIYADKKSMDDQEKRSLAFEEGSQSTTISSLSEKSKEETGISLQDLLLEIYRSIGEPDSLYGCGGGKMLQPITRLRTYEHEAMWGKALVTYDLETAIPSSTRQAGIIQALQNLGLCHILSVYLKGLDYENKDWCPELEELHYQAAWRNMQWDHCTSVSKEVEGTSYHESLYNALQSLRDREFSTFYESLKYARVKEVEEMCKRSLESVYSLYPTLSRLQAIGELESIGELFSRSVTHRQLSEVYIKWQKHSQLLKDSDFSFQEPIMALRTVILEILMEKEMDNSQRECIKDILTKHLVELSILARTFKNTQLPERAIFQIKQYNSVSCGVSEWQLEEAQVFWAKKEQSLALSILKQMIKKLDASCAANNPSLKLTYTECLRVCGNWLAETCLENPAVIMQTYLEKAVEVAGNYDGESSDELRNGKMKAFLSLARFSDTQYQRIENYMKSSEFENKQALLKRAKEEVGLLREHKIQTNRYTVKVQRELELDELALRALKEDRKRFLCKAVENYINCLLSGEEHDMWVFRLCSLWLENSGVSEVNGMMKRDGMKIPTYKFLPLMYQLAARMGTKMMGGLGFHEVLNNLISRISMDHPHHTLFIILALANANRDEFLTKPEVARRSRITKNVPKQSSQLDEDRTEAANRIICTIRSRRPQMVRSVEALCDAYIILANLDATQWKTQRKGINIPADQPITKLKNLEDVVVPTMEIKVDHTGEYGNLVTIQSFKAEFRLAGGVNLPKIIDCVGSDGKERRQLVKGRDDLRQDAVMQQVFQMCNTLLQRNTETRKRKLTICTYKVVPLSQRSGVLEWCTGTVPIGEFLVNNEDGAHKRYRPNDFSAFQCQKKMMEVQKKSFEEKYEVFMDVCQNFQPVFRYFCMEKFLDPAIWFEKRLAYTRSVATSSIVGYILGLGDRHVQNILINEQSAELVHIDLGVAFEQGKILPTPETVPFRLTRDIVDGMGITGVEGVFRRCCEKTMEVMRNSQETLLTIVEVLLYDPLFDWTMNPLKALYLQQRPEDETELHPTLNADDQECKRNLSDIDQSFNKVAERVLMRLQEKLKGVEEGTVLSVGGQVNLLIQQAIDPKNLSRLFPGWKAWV
Phosphatidylinositol 4,5-bisphosphate 3-kinase catalytic subunit alpha isoform, sequence (P42336 whole entry, canonical isoform): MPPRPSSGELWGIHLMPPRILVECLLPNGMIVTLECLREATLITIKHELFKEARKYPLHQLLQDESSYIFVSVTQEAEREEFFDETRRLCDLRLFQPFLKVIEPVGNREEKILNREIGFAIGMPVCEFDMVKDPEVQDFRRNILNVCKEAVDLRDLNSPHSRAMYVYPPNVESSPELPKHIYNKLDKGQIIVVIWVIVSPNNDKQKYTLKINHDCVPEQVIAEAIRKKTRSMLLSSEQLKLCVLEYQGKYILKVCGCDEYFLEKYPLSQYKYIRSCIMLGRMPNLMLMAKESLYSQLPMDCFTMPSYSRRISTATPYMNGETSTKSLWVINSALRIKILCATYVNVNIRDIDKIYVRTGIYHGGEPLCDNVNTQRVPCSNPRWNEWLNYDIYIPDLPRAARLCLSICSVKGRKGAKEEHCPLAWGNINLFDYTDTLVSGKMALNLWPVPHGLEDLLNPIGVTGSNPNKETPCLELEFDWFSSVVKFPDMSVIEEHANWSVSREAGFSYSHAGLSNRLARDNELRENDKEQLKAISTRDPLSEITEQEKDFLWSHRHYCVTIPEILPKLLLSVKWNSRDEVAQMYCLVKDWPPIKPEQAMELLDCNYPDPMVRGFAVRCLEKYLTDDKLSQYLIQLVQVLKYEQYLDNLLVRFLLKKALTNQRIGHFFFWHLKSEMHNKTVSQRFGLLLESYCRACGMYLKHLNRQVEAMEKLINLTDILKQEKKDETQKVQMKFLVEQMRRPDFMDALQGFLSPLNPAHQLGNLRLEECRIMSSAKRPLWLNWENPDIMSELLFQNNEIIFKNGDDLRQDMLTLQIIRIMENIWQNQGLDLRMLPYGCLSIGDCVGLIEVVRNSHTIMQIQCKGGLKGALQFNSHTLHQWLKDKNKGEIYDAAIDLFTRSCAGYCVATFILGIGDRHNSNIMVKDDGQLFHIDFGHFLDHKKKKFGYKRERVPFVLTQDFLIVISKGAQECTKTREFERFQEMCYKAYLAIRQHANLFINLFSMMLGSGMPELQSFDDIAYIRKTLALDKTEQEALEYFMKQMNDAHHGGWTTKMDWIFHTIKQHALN

Compound	IC50 [1] [nM]	other results
CC[C@@H]1CNc2c(-c3ccc(OCCCN4CCCCC4)nc3)c(F)cc3ncc4c(c23)n1c(=O)n4C [US20240294545, Compound A-194]	0.45	–
Cn1c(=O)n2c3c4c(c(-c5ccc(OCCCN6CCC(C#N)CC6)nc5)c(F)cc4ncc31)OCC21CCC1 [US20240294545, Compound A-166]	0.21	–
CC[C@@H]1CNc2c(-c3ccc(OCCCN4CCCCC4)nc3)ccc3ncc4c(c23)n1c(=O)n4C [US20240294545, Compound A-201]	0.61	–
Cn1c(=O)n2c3c4c(c(-c5ccc(OCCCN6CCCCC6)nc5)c(F)cc4ncc31)OCC21CCOCC1 [US20240294545, Compound A-204]	0.78	–
COc1cc2ncc3c4c2c(oc2ccccc2n4c(=O)n3C)c1-c1cnn(C)c1 [US20240294545, Compound A-33]	0.08	–
Cn1c(=O)n2c3c4c(c(-c5ccc(OCCCN6CCCCC6)nc5)c(F)cc4ncc31)OC1CCCCC12 (stereo not given) [US20240294545, Compound A-21]	0.45	IC50 [2]: 2230 nM; IC50 [3]: > 10000 nM; IC50 [4]: > 10000 nM; IC50 [5]: > 10000 nM; IC50 [6]: > 10000 nM; IC50 [7]: > 10000 nM
Cn1c(=O)n2c3c4c(c(-c5ccc(OCCCN6CCC(F)CC6)nc5)c(F)cc4ncc31)OCC21CCC1 [US20240294545, Compound A-165]	0.37	–
Cn1c(=O)n2c3c4c(c(-c5ccc(OCCCN6CCC7(CC6)COC7)nc5)c(F)cc4ncc31)OCC21CCC1 [US20240294545, Compound A-167]	0.33	–
Cn1c(=O)n2c3c4c(c(-c5ccc(OCCCN6CC7CC7C6)nc5)c(F)cc4ncc31)OCC21CCC1 (stereo not given) [US20240294545, Compound A-170]	0.7	–
